Experimental findings from patent US10246439B2, “Apoptosis signal-regulating kinase 1 inhibitors and methods of use thereof” (ENANTA PHARMACEUTICALS, INC., priority 2017, dated 2019) are described below.

This experiment addresses T1, ASK1 (Homo sapiens, UniProt Q99683).
T1 construct: purchased Thermofisher PV4011
T1 sequence (Q99683 1-1374): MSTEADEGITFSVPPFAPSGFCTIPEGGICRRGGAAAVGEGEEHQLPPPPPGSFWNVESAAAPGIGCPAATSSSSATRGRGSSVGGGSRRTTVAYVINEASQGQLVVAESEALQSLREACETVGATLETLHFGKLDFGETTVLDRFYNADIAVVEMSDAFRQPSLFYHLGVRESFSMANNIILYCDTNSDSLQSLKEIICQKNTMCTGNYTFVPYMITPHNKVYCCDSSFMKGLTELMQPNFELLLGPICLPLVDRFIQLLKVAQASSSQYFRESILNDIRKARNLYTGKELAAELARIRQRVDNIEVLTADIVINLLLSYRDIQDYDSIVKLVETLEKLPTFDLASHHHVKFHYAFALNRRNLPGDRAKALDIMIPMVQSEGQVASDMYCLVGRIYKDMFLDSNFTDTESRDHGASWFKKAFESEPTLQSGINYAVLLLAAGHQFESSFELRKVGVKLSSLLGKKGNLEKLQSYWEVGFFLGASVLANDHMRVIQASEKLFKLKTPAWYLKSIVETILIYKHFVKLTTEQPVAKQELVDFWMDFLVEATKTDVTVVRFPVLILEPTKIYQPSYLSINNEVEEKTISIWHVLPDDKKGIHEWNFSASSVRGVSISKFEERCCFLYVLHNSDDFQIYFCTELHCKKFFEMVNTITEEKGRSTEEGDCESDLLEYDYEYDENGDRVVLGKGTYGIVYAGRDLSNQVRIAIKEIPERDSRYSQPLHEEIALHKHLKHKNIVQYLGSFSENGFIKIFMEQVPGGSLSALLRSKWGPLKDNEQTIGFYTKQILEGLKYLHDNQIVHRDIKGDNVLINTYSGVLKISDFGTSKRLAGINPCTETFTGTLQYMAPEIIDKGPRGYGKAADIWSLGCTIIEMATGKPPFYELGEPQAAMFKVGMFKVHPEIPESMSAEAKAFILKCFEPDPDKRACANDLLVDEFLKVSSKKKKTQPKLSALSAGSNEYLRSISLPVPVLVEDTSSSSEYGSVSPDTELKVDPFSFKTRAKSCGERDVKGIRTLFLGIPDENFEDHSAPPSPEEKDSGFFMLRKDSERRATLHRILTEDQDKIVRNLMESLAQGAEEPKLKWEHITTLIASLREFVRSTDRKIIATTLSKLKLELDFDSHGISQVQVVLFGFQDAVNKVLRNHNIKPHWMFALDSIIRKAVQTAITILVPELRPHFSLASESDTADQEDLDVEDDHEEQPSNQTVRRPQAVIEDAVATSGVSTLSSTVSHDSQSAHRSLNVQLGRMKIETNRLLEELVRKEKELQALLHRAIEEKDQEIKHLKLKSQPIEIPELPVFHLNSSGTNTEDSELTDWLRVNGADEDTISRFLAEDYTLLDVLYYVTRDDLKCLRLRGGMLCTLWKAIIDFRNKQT
The experiment in a line: HTRF KinEASE-STK TR-FRET kinase assay, inhibition of ASK1. As to conditions: 5 nM ASK1, 1 uM STK3 peptide substrate, 100 uM ATP. In kind it is biochemical. As to the method:
ASK1 was purchased from Thermofisher (Catalogue # PV4011), ATP was purchased from Sigma (Catalogue # A7699), HTRF® KinEASE™ Assay System was obtained from Cisbio (Bedford, Mass.). ½ Area plate was purchased from Perkin Elmer (Catalogue # #6005560). HTRF® KinEASE™-STK is a generic method for measuring serine/threonine kinase activities using a time-resolved fluorescence resonance energy transfer (TR-FRET) immunoassay. The IC50 value for each compound was determined in the presence of compound (various concentration from 0 to 10 μM) and a fixed amount of ATP and peptide substrates. The test compound, 1 uM STK3 peptide substrate, and 5 nM of ASK1 kinase are incubated with kinase reaction buffer containing 50 mM HEPES pH 7.5, 0.01% BRIJ-35, 10 mM MgCl2, and 1 mM EGTA for 30 minutes. 100 uM ATP is added to start kinase reaction and incubated for 3 hours. The STK3-antibody labeled with Eu^3+-Cryptate and 125 nM streptavidin-XL665 are mixed in a single addition with stop reagents provided by the Cisbio kit used to stop the kinase reaction. Fluorescence is detected using an Envision Multilabeled 2014 reader from PerkinElmer. The Fluorescence is measured at 615 nm (Cryptate) and 665 nm (XL665) and a ratio of 665 nm/615 nm is calculated for each well. The resulting TR-FRET is proportional to the phosphorylation level. Staurosporine was used as the positive control. IC50 was determined by XLfit 5.3.
A general note: Time-resolved FRET reads energy transfer from a long-lived donor to a nearby acceptor.

Molecules are shown by their SMILES. Bounds are passed on as bounds.

As usually defined, the IC50 is the concentration needed to halve the response being measured. Low readings indicate higher potency, high ones lower potency.

The compound `CC(C)n1nnnc1-c1cccc(NC(=O)c2cc3sc(N4CCC4)nc3cc2F)n1` [Example 45] displayed an IC50 above 1 µM.
Compound `CC(C)n1nnnc1-c1cccc(NC(=O)c2cc3sc(N4CCOCC4)nc3cc2F)n1` [Example 46] gave a half-maximal inhibitory concentration (IC50) of 0.01 to 0.1 µM.
The figure for `CC(C)n1nnnc1-c1cccc(NC(=O)c2cc3sc(N4CCCC4)nc3cc2F)n1` [Example 47] is above 1 µM; for `CC(C)n1cnnc1-c1cccc(NC(=O)c2cc3sc(NCC4CC4)nc3cc2F)n1` [Example 48] it is 0.01 to 0.1 µM; for `CNc1nc2cc(F)c(C(=O)Nc3cccc(-c4nncn4C(C)C)n3)cc2s1` [Example 49, 5-fluoro-N-(6-(4-isopropyl-4H-1,2,4-triazol-3-yl)pyridin-2-yl)-2-(methylamino)benzo[d]thiazole-6-carboxamide] it is 0.001 to 0.01 µM.
As to `CC(C)n1cnnc1-c1cccc(NC(=O)c2cc3sc(N4CCCC4)nc3cc2F)n1` [Example 50], the concentration for half-maximal inhibition (IC50) was 0.001 to 0.01 µM.
Then `CC(C)n1cnnc1-c1cccc(NC(=O)c2ccc3nc(N4C5CCCC4CC5)sc3c2)n1` [Example 51], with 0.01 to 0.1 µM; and `CC(C)n1cnnc1-c1cccc(NC(=O)c2ccc3nc(N4CC5CC5C4)sc3c2)n1` (stereo not shown) [Example 52], with 0.01 to 0.1 µM.
The compound `CC(C)N(c1nc2ccc(C(=O)Nc3cccc(-c4nncn4C(C)C)n3)cc2s1)C(C)C` [Example 53, 2-(diisopropylamino)-N-(6-(4-isopropyl-4H-1,2,4-triazol-3-yl)pyridin-2-yl)benzo[d]thiazole-6-carboxamide] returned a half-maximal inhibitory concentration (IC50) of 0.01 to 0.1 µM.
The figure for `CC(C)n1cnnc1-c1cccc(NC(=O)c2ccc3nc(N4CCC(C)(C)CC4)sc3c2)n1` [Example 54] is above 1 µM.
Then `CC(C)n1cnnc1-c1cccc(NC(=O)c2ccc3nc(N4CCN(C5CC5)CC4)sc3c2)n1` [Example 55], with 0.1 to 1 µM.
Take `CC(C)Nc1nc2ccc(C(=O)Nc3cccc(-c4nncn4C(C)C)n3)cc2s1` [Example 56]: the 50% inhibitory concentration (IC50) was in the range of 0.1 to 1 µM.
Then `CCN(CC)c1nc2ccc(C(=O)Nc3cccc(-c4nncn4C(C)C)n3)cc2s1` [Example 57], with 0.01 to 0.1 µM; and `CC(C)n1cnnc1-c1cccc(NC(=O)c2ccc3nc(-c4ccc(C(C)(C)C)cc4)sc3c2)n1` [Example 58, 2-(4-(tert-butyl)phenyl)-N-(6-(4-isopropyl-4H-1,2,4-triazol-3-yl)pyridin-2-yl)benzo[d]thiazole-6-carboxamide], with above 1 µM.
The figure for `CC(C)n1cnnc1-c1cccc(NC(=O)c2ccc3nc(N4CCN(C(C)(C)C)CC4)sc3c2)n1` [Example 59] is 0.01 to 0.1 µM.
The figure for `CC(C)n1cnnc1-c1cccc(NC(=O)c2ccc3nc(N4CCCCC4)sc3c2)n1` [Example 60, N-(6-(4-isopropyl-4H-1,2,4-triazol-3-yl)pyridin-2-yl)-2-(piperidin-1-yl)benzo[d]thiazole-6-carboxamide] is 0.01 to 0.1 µM.
The compound `CC(C)n1cnnc1-c1cccc(NC(=O)c2ccc3nc(N4CCOCC4)sc3c2)n1` [Example 61] showed a half-inhibitory concentration (IC50) of 0.01 to 0.1 µM.
With `CC(C)n1nnnc1-c1cccc(NC(=O)c2cc3sc(N4CCCCC4)nc3cn2)n1` [Example 62], the IC50 is above 1 µM.
Then `CC(C)n1cnnc1-c1cccc(NC(=O)c2cc3sc(C4CC4)nc3cn2)n1` [Example 63, 2-cyclopropyl-N-(6-(4-isopropyl-4H-1,2,4-triazol-3-yl)pyridin-2-yl)thiazolo[4,5-c]pyridine-6-carboxamide], with 0.01 to 0.1 µM; and `CC(C)n1cnnc1-c1cccc(NC(=O)c2cc3sc(N(C)C)nc3cn2)n1` [Example 64], with 0.01 to 0.1 µM.
The figure for `CC(C)n1cnnc1-c1cccc(NC(=O)c2cc3sc(N4CCOCC4)nc3cn2)n1` [Example 65] is 0.001 to 0.01 µM; for `CC(C)n1cnnc1-c1cccc(NC(=O)c2cc3sc(N4CCCCC4)nc3cn2)n1` [Example 66, N-(6-(4-isopropyl-4H-1,2,4-triazol-3-yl)pyridin-2-yl)-2-(piperidin-1-yl)thiazolo[4,5-c]pyridine-6-carboxamide] it is 0.001 to 0.01 µM.
Then `CC(C)n1cnnc1-c1cccc(NC(=O)c2cc3sc(C4CCC4)nc3cn2)n1` [Example 67], with 0.01 to 0.1 µM.
In turn, `CC(C)n1nnnc1-c1cccc(NC(=O)c2cc3sc(N4CCC(C(C)(C)C)CC4)nc3cn2)n1` [Example 68] displayed a 50% inhibitory concentration (IC50) above 1 µM.
The figure for `CC(C)n1nnnc1-c1cccc(NC(=O)c2cc3sc(C4CCC4)nc3cn2)n1` [Example 69] is above 1 µM; for `CC(C)n1nnnc1-c1cccc(NC(=O)c2cc3sc(C4CC4)nc3cn2)n1` [Example 70] it is above 1 µM.
As for `CC(C)n1nnnc1-c1cccc(NC(=O)c2cc3sc(N4CCN(C(C)(C)C)CC4)nc3cn2)n1` [Example 71], the IC50 was in the range of 0.1 to 1 µM.
Then `CC(C)n1nnnc1-c1cccc(NC(=O)c2cc3sc(N4CCOCC4)nc3cn2)n1` [Example 72], with above 1 µM; and `CC(C)n1cnnc1-c1cccc(NC(=O)c2cc3sc(N4CCC(C(C)(C)C)CC4)nc3cn2)n1` [Example 73], with above 1 µM.
The figure for `CC(C)n1cnnc1-c1cccc(NC(=O)c2cc3sc(N4CCN(C(C)(C)C)CC4)nc3cn2)n1` [Example 74] is 0.01 to 0.1 µM.
In turn, `CC(C)n1nnnc1-c1cccc(NC(=O)c2cc3sc(N(C)C)nc3cn2)n1` [Example 75] registered an IC50 of 0.01 to 0.1 µM.
